“And” between values parts separate entries of the source, which are not always exact repeats. Equal entries are not always repeated. “Also recorded” adds a separate entry of the source. Where two headings read alike, the source gives them in different places.
Experiments:
U937 cells = assay: cells; type: cell-based, human
isolated U937 nuclei = assay: DNA fragmentation assay using isolated U937 nuclei; type: cell-based, human; conditions: inhibitor 50 μM (FIG. 6B)
Description: U937 cells were labeled with ^3 H-thymidine by culturing overnight with isotope at 0.5 μCi/ml. The cells were pelleted, washed once, and the cytoplasmic membrane lysed by resuspending the cells in assay buffer (50 mM Tris, 250 mM sucrose 10 mM MgSO4, pH 7.5) plus 0.02% NP-40. Nuclei were then pelleted and resuspended in assay buffer at 1×10^6 /ml. The assay was set up in triplicate in flat bottom microtiter plates under sterile conditions. Nuclei (0.05 ml) were mixed with 0.05 ml of sample diluted in 50 mM Tris pH 7.5 or buffer alone to determine total counts. Plates were incubated for 5 h at 37° C. and then harvested by the addition of 0.1 ml of harvesting buffer (10 mM Tris, 10 mM EDTA, 0.3% Triton X-100, pH 7.5). Plates were harvested by filtration onto glass fiber paper and counted on a Packard Matrix 96 beta counter. Percent DNA fragmentation was calculated as follows: […]

BT-20 = type: cell-based, human; conditions: for % DNA fragmentation: BT-20, UV 0.5 J/cm^2, 8 h, no inhibitor 44 ± 3.6
[1] = test system: anti-Fas-induced hepatocyte apoptosis; assay: Anti-Fas induced hepatotoxicity in mice (serum transaminases); type: in vivo
Description: It has been previously shown that injection of mice with antibodies directed against the Fas antigen causes hepatocyte apoptosis and death due to liver failure (Ogasawara et al. (1993) Nature 364:806-809). Therefore, the effects of administration of DK120 to mice injected with antibodies directed against the murine Fas antigen were tested.
(§1) ^1 Mice (2 for each treatment) were injected ip +/- DK120 30 min prio
to antiFas antibodies. Twelve h later serum transaminase levels were […]

3T3 = assay: Inhibition of UV-induced DNA fragmentation in 3T3 cells; type: cell-based, murine; conditions: UV 0.5 J/cm^2, 8 h, no inhibitor 38 ± 1.9
Description: To determine if these findings were unique to U937 or if other cell lines also require protease activity to undergo apoptosis, the effects of several inhibitors on apoptosis induced by UV light in the human mammary carcinoma, BT-20, the murine fibroblast cell line, 3T3, and the human myeloid leukemia, HL-60 were tested. For the BT-20 and 3T3 cells, target cells were pretreated for one hour (with or without inhibitors as indicated in the table) and exposed to UV light at 0.5 J/cm^2 and then incubated for eight hours prior to assessing DNA fragmentation. HL-60 cells were pretreated for one hour (with or without inhibitors as indicated in the table) and exposed to UV at 0.2 J/cm^2 and then incubated for two hours prior to assessing DNA fragmentation.
DNA fragmentation assays were carried out according to the protocol of Wright S. C., et al. (1,992) J. Cell. Biochem. 48, 344-355. Target cells were labeled with ^3 H-thymidine and plated in triplicate in flat bottom microtiter plates. Cells were incubated for the indicated length of time for each experiment in the presence of TNF or various inhibitors. In some experiments, cells were treated with UV light at 245 nm using a UV Crosslinker (Fisher Scientific). Assays were harvested and counted on a Packard matrix 96 beta counter. Percent DNA fragmentation was calculated as for the nuclear assay described in Example 3. In assays to test the effects of various inhibitors, the pH of extra wells containing assay buffer, target cells, and each inhibitor was always checked at the beginning and end of each assay to assure that the pH remained at 7.5.

mice = assay: Toxicity of DK120 in mice on daily injection; type: in vivo
Description: In preliminary studies daily injection of mice with DK120 at 20 mg/kg was lethal. The reason for toxicity is not clear but may be related to the ability of DK120 to inhibit chymotrypsin-like enzymes that may be essential for the normal function of various tissues.

[2] = test system: chymotrypsin-like enzymes; conditions: cited from earlier work
[3] = test system: TNF-induced hepatocyte apoptosis; assay: TNF-induced hepatotoxicity in mice (serum transaminases); type: in vivo, Balb/c mice; conditions: for AST: without DK120 78
Description: In this example the concept that a protease inhibitor such as DK120 may attenuate inappropriate apoptosis that causes tissue damage in systemic inflammatory response syndrome (SIRS) was tested. TNF-induced hepatocyte apoptosis in mice was performed as described by Leist et al. ((1995) J. Immunol. 154:1778-1786). Briefly, Balb/c mice were injected ip with […] murine TNF combined with […] Actinomycin D/mouse. Twelve h later, mice were anesthetized and bled from the heart to measure serum transaminase levels, which are standard clinically used indicators of liver damage. Mice that were treated with protease inhibitors were injected ip with these compounds 30 min. prior to TNF. Alanine aminotransferase (ALT) and aspartate aminotransferase (AST) were assayed using a commercially available kit (Sigma). […] However, treatment with DK120 caused a doss-dependent decrease in serum transaminase levels. […] However, a drug that nonspecifically blocks all apoptotic pathways that normally function to maintain homeostasis may not be clinically desirable. Subsequent studies were performed to determine if DK120 could also suppress hepatocyte apoptosis in response to a different stimulus.
as §1
to TNF and Actinomycin D. Twelve h later serum transaminase levels were
To further explore the specificity of DK120 attenuation of TNF-induced hepatotoxicity, several compounds were tested that were found previously not to inhibit apoptotic protease proteolytic activity as measured against a synthetic substrate (data not shown). […] Therefore, the protection mediated by DK120 is not a property of any boron-containing molecule.
^1 Mice (3 for each treatment) were injected ip +/- the inhibitors 30
min prior to TNF and Actinomycin D. Twelve h later serum transaminase

[4] = test system: SEB-induced hepatotoxicity; type: in vivo, mice; conditions: Gln + SEB + DK120 5 mg/kg

C[C@H](NC(=O)OCc1ccccc1)C(=O)N[C@@H](C)C(=O)NC(Cc1ccccc1)B(O)O (some centres unmarked) [DK120, carbobenzoxy-ala-ala-borophe]
IC50 (U937 cells; Homo sapiens, U-937, read-out: IC50 (Active Concentration), TNF and UV-light induced apoptosis): 1200 nM
Concentration of maximum suppression of DNA fragmentation (U937 cells; U937, TNF 1.0 ng/ml plus cycloheximide or UV 0.1 J/cm^2, 1 h pretreatment (FIG. 1)): 2.0 µM
Effect on DNA fragmentation induced by TNF or UV light (U937 cells; U937 cells, result in words): suppressed DNA fragmentation; also recorded: dose-dependently inhibit DNA fragmentation
Inhibition of nuclear DNA fragmenting activity of protease from UV-treated cells (isolated U937 nuclei): inhibited
% DNA fragmentation (BT-20; inhibitor 0.2 μM): 5 ± 8.7%
% DNA fragmentation (BT-20; inhibitor 1 μM): 0%
% DNA fragmentation (BT-20; inhibitor 5 μM): 0%
Effect on UV-induced DNA fragmentation (BT-20; summary of Table 2 (BT-20, 3T3, HL-60)): effectively blocked DNA fragmentation
AST ([1]; DK120 5 mg/kg ip 30 min prior to anti-Fas, 12 h, without DK120 81): 121 U/ml
ALT ([1]; DK120 5 mg/kg ip 30 min prior to anti-Fas, 12 h, without DK120 513): 746 U/ml
Effect on anti-Fas induced elevation of serum transaminases ([1]; mouse, in vivo): did not counteract the elevation of serum transaminases induced by anti-Fas antibodies
% DNA fragmentation (3T3; inhibitor 1 μM): 24 ± 0.3%
% DNA fragmentation (3T3; inhibitor 5 μM): 19 ± 1.9%
Lethality (mice; daily injection, 20 mg/kg, preliminary studies): lethal
Toxicity of compound alone (mice; mouse, in vivo): relatively toxic
Inhibition of chymotrypsin / chymotrypsin-like enzymes [2]: reversible inhibitor of chymotrypsin; also recorded: potently inhibits chymotrypsin-like enzymes
AST ([3]; Table 7, DK120 1 mg/kg ip 30 min prior to Actinomycin D + TNF, 12 h): 64 U/ml
ALT ([3]; Table 7, DK120 1 mg/kg ip 30 min prior to Actinomycin D + TNF, 12 h, without DK120 398): 232 U/ml
AST ([3]; Table 7, DK120 2.5 mg/kg ip 30 min prior to Actinomycin D + TNF, 12 h): 47 U/ml
ALT ([3]; Table 7, DK120 2.5 mg/kg ip 30 min prior to Actinomycin D + TNF, 12 h, without DK120 398): 145 U/ml
ALT ([3]; Table 7, DK120 5 mg/kg ip 30 min prior to Actinomycin D + TNF, 12 h, without DK120 398): 123 U/ml
AST ([3]; Table 7, DK120 10 mg/kg ip 30 min prior to Actinomycin D + TNF, 12 h): 56 U/ml
ALT ([3]; Table 7, DK120 10 mg/kg ip 30 min prior to Actinomycin D + TNF, 12 h, without DK120 398): 50 U/ml
Protection from TNF-induced hepatotoxicity ([3]; Table 10, 10 mg/kg): reduced levels of ALT to close to that of Actinomycin D alone
Effect on TNF-induced serum transaminase levels ([3]; ip 30 min prior to TNF): reduced transaminase to levels very close to those seen in mice injected with Actinomycin D only
ALT ([3]; mouse, in vivo): 190 +/- 21 U/ml and 141 +/- 20 U/ml
% Mortality ([4]; without DK120 33): 0%
AST ([4]; without DK120 119): 72 +/- 13 U/ml
ALT ([4]; without DK120 339): 205 +/- 28 U/ml
